Results as given in ChEMBL document CHEMBL1201862, “PubChem BioAssay data set” (2004).
Activity calls are given as the source filed them.

Columns and labels:
[1] = StAR promoter reporter inhibition counter-screen, dose response, counter-screen for LRH-1 inverse agonist project, cell-based, luminescence, luciferase reporter (AID 651969); assay type: functional
[2] = biological target: Nuclear receptor subfamily 5 group A member 2 (Homo sapiens, UniProt O00482); assay type: functional, cell-based;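 further: HEK293T cells transfected with LRH-1 and a StAR promoter luciferase reporter; potency for inhibitors that lower LRH-1 driven reporter light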
Steroidogenic factor 1 = Steroidogenic factor 1 (Homo sapiens, UniProt Q13285); assay: Counterscreen for inverse agonists of the liver receptor homolog-1 (LRH-1; NR5A2): Luminescence-based cell-based high throughput dose response assay to identify inverse agonists of the Steroidogenic Factor 1 Nuclear Receptor (SF1; NR5A1).; assay type: functional
HeLa = assay: HeLa cell cytotoxicity, dose response, cytotoxicity control for MITF activator project, CellTiter-Glo luminescence, cherry-pick samples (AID 540259); assay type: functional, cell-based; details: Homo sapiens
[3] = biological target: T1, Low molecular weight phosphotyrosine protein phosphatase (Homo sapiens, UniProt P24666); assay type: functional; details: read-out: IC50_Mean
T1 sequence (P24666 whole entry): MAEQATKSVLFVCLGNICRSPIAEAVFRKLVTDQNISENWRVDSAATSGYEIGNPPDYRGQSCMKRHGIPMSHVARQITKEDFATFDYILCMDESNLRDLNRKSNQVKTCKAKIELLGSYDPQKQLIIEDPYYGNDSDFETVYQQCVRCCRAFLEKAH

[4] = biological target: T1, Low molecular weight phosphotyrosine protein phosphatase; assay type: functional; details: read-out: IC50_Mean; remark: listed apart in the source
[5] = biological target: T2, Probable nicotinate-nucleotide adenylyltransferase (Staphylococcus aureus (strain N315), UniProt P65502); assay type: functional, Staphylococcus aureus subsp. aureus N315;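 on IC50 Mean: confirmatory dose-response retesting of NadD inhibitor hits first found in an ultra-high-throughput screen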
T2 sequence (P65502 whole entry): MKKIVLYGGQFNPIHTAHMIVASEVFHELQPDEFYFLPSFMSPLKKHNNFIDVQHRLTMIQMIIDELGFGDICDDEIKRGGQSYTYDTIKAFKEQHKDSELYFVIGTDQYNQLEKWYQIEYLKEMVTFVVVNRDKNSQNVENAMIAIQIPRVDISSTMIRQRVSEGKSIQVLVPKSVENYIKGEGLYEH

[6] = biological target: T2, Probable nicotinate-nucleotide adenylyltransferase; assay type: functional, Staphylococcus aureus subsp. aureus N315; details: read-out: IC50_Mean
[7] = inhibitors of intracellular T. cruzi replication, confirmation, NIH3T3 host cells, beta-gal luminescence (AID 2044); assay type: functional, cell-based;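 further: intracellular parasites grown in NIH/3T3 mouse fibroblasts as host cells; luminescent beta-galactosidase reporter signal from transgenic T. cruzi replicating inside host cells; inhibitors lower the luminescence signal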
[8] = cytotoxicity toward NIH3T3 fibroblasts, dose response, counter-screen, cell-based, ATP luminescence, mouse fibroblasts (AID 2010); assay type: functional;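 further: cells exposed to compound for about 90 hours before reading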
Streptococcus = assay: Group A Streptococcus viability loss, dose response, counter-screen for streptokinase expression inhibitor project, luminescence, BacTiterGlo (AID 1915); assay type: functional, organism-based;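 further: potency for reduction of bacterial viability or growth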
Escherichia coli [9] = assay: microbe, parasite or virus in culture
[10] = tested on: Streptococcus sp. 'group A'; assay: growth inhibition of control SK(-) GAS strain, dose response, counter-screen for streptokinase expression inhibitor project, luminescence, kanamycin, BacTiterGlo, confirmation (AID 1900); assay type: functional, organism-based
Escherichia coli [11] = assay: microbe, parasite or virus in culture; remark: listed apart in the source
[12] = biological target: T3, Interleukin-1 receptor-associated kinase 4 (Homo sapiens, UniProt Q9NWZ3); assay type: functional
T3 sequence (Q9NWZ3 whole entry): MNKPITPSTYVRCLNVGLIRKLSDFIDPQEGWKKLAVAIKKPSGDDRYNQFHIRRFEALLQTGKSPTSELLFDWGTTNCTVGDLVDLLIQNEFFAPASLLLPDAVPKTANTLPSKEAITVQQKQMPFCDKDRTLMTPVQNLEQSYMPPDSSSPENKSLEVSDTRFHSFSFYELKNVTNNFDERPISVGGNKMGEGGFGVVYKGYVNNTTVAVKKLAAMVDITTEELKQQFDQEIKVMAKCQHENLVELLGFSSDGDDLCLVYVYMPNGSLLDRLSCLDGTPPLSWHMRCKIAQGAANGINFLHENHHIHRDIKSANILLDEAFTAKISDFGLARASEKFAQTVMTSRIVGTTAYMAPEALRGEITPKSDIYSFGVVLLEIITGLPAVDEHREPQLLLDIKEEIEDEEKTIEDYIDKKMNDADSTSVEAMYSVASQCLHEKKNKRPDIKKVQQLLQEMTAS

[13] = biological target: Glycogen synthase kinase-3 beta (Homo sapiens, UniProt P49841); assay type: functional;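 further: value comes from a broad kinome profiling panel, with GSK3B as the panel member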
Sequence of Glycogen synthase kinase-3 beta (P49841 whole entry): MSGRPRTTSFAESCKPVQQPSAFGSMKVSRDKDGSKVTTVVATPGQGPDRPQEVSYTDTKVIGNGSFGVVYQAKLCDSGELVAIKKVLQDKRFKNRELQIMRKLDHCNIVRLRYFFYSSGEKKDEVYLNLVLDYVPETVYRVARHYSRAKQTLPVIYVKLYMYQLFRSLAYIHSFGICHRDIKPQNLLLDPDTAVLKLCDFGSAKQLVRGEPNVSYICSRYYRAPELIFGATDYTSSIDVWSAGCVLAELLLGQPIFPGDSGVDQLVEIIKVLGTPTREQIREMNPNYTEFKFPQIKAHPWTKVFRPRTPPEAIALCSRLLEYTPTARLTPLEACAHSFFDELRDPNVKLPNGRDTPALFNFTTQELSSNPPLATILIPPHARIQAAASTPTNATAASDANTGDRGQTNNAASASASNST

[14] = biological target: Serine/threonine-protein kinase pim-1 (Homo sapiens, UniProt P11309); assay type: functional
Sequence of Serine/threonine-protein kinase pim-1 (P11309 whole entry): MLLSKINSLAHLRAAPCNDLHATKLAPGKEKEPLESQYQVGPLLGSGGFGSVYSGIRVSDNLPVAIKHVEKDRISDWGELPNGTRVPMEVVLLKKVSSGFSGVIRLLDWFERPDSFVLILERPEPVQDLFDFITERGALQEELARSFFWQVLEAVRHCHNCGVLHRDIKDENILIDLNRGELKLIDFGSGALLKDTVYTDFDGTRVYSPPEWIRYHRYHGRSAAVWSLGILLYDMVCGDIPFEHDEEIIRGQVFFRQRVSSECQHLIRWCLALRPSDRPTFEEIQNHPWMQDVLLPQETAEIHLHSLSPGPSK

[15] = biological target: Homeodomain-interacting protein kinase 2 (Homo sapiens, UniProt Q9H2X6); assay type: functional;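 further: measured within a kinome-wide kinase profiling panel, HIPK2 being one panel member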
Sequence of Homeodomain-interacting protein kinase 2 (Q9H2X6 whole entry): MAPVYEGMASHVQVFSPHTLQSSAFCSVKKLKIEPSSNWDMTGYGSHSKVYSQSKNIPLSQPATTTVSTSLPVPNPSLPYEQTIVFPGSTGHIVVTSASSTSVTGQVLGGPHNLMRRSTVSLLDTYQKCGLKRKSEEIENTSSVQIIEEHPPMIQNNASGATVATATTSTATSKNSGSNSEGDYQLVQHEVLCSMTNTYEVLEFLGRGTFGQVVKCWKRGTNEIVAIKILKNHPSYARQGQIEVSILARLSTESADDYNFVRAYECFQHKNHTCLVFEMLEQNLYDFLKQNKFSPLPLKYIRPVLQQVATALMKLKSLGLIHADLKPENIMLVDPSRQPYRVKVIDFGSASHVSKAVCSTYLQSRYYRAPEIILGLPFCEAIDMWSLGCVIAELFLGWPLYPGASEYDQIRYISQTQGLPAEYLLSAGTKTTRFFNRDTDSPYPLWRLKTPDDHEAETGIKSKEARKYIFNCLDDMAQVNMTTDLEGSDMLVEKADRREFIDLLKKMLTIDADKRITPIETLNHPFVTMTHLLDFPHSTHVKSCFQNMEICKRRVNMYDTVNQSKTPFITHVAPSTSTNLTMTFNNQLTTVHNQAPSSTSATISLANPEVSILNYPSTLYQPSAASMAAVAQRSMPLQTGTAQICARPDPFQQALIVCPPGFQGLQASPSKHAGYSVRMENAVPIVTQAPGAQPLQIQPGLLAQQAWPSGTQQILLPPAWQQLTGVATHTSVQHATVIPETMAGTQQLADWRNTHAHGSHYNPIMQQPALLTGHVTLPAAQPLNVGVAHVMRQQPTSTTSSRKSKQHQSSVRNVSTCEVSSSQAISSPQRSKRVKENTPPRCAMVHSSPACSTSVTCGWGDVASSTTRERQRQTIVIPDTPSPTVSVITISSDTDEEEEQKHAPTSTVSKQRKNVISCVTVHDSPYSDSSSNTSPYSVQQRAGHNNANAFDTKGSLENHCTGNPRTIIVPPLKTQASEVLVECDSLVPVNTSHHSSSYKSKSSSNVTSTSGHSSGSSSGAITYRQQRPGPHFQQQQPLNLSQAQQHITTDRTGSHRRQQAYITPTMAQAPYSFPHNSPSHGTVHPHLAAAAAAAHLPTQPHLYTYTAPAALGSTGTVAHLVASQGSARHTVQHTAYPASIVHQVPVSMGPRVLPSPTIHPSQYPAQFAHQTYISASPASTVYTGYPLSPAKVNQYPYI

[16] = biological target: cAMP-dependent protein kinase catalytic subunit alpha (Homo sapiens, UniProt P17612); assay type: functional
[17] = biological target: MAP kinase-interacting serine/threonine-protein kinase 2 (Homo sapiens, UniProt Q9HBH9); assay type: functional
Sequence of MAP kinase-interacting serine/threonine-protein kinase 2 (Q9HBH9 whole entry): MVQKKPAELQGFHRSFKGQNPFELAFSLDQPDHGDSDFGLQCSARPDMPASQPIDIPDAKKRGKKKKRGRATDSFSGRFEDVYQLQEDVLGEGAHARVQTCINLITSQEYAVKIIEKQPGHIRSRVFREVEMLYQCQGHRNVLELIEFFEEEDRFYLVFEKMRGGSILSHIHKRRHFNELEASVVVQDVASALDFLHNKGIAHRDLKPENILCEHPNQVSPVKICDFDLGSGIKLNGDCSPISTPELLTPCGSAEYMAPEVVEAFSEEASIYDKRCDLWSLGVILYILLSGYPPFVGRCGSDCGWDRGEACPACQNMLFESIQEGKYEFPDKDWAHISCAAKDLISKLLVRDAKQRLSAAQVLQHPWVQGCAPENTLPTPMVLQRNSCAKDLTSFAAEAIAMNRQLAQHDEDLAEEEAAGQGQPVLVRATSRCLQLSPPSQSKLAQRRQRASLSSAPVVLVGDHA

[18] = biological target: Cell division cycle 7-related protein kinase (Homo sapiens, UniProt O00311); assay type: functional;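 further: value obtained from a kinome-wide kinase panel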
Sequence of Cell division cycle 7-related protein kinase (O00311 whole entry): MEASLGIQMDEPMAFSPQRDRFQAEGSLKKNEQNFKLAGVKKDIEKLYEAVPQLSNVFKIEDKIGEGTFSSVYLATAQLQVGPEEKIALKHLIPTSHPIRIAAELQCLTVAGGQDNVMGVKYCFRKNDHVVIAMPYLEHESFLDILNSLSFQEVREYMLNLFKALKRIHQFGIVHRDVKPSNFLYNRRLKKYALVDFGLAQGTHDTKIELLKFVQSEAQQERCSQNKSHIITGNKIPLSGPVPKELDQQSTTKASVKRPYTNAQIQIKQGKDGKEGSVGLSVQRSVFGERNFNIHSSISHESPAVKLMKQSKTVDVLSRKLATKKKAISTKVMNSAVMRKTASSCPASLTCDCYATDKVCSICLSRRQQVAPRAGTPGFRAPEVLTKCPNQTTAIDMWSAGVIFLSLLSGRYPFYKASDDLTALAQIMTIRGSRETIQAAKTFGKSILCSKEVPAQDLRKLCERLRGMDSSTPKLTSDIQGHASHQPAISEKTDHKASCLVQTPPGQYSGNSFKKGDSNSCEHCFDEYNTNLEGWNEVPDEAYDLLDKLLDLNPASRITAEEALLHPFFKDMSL

[19] = biological target: Mitogen-activated protein kinase kinase kinase kinase 4 (Homo sapiens, UniProt O95819); assay type: functional
Sequence of Mitogen-activated protein kinase kinase kinase kinase 4 (O95819 whole entry): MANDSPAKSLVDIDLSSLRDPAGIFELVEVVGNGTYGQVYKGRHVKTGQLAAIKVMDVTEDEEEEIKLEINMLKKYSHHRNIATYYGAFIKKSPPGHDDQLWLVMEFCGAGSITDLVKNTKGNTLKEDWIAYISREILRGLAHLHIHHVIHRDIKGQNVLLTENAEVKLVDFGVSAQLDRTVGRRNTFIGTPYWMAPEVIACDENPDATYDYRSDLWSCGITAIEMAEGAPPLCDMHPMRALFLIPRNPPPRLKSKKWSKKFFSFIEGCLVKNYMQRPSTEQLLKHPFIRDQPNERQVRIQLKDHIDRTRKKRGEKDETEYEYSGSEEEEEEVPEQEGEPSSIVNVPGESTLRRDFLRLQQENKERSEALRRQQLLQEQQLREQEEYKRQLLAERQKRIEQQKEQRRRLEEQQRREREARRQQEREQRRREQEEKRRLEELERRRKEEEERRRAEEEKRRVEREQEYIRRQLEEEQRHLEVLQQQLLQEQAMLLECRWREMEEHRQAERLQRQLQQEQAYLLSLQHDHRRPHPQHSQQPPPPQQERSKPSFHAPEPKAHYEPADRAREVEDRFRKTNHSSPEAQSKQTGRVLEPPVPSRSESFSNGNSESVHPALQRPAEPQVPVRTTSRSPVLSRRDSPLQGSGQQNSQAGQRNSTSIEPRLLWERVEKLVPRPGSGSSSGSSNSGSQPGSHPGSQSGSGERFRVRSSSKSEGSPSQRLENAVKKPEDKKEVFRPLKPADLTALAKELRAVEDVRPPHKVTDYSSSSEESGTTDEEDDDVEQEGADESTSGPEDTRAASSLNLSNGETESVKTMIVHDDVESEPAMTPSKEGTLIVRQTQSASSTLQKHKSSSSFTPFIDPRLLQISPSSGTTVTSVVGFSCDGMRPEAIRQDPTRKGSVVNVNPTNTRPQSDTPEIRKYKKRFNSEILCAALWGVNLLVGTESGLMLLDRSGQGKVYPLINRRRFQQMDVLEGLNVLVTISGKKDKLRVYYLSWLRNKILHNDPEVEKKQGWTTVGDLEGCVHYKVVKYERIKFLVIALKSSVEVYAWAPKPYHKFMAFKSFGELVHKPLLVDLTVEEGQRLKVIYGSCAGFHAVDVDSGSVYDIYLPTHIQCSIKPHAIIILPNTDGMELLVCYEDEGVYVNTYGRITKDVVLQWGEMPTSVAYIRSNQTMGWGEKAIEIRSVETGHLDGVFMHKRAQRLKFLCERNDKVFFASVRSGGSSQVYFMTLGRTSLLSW

[20] = biological target: T4, Short transient receptor potential channel 4 (Mus musculus, UniProt Q9QUQ5); assay: mouse TRPC4 channel activators, dose response, cell-based, HEK293 TRPC4/mu-opioid, Fluo-4 calcium (AID 434937); assay type: functional
T4 sequence (Q9QUQ5 whole entry): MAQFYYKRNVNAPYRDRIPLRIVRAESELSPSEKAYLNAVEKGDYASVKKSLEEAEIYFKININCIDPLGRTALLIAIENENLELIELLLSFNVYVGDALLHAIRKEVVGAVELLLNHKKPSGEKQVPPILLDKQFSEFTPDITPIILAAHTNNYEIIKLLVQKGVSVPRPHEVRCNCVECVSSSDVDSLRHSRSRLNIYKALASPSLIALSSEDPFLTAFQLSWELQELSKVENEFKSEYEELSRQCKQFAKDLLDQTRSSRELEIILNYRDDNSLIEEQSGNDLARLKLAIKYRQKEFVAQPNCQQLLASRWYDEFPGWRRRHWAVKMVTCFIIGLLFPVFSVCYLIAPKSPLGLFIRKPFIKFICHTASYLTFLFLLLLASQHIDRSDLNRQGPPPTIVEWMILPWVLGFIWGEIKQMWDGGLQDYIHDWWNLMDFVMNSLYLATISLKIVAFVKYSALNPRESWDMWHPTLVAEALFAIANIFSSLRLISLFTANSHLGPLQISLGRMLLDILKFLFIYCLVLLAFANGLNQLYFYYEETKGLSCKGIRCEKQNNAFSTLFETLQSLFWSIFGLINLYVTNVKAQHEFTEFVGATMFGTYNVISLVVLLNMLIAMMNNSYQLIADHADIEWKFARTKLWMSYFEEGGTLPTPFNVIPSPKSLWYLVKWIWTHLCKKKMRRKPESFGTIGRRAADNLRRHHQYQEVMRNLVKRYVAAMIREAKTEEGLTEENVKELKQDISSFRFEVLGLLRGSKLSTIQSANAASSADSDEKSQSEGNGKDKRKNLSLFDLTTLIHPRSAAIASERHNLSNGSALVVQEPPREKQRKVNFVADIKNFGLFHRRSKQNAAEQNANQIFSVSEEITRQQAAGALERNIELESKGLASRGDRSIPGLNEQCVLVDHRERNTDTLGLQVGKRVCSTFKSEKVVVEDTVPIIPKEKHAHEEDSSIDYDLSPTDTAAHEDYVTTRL

[21] = biological target: 5-hydroxytryptamine receptor 5A (Homo sapiens, UniProt P47898); assay: Counterscreen for agonists of OPRM1-OPRD1 heterodimerization: luminescence-based cell-based high throughput dose response assay to identify agonists of 5-hydroxytryptamine (serotonin) 5A receptor (HTR5A). [Related pubchem assays (depositor defined):AID504326, AID504355, AID504692, AID504904, AID504905]; assay type: functional
Sequence of 5-hydroxytryptamine receptor 5A (P47898 whole entry): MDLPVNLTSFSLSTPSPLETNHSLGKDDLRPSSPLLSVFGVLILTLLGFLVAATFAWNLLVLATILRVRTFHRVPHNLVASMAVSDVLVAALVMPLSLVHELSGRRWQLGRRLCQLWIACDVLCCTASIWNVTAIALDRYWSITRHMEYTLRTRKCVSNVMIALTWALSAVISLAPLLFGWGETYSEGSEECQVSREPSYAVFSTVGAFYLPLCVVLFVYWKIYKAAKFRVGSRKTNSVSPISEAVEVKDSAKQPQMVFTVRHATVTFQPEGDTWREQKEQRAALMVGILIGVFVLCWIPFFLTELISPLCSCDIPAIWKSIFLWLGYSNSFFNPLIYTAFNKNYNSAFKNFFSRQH

[22] = biological target: Delta-type opioid receptor (Homo sapiens, UniProt P41143); assay: Counterscreen for agonists of heterodimerization of the mu 1 (OPRM1) and delta 1 (OPRD1) opioid receptors: Luminescence-based cell-based high throughput dose response assay to identify agonists of OPRD1 homodimerization. [Related pubchem assays (depositor defined):AID504326, AID504355, AID504692, AID504904, AID504905]; assay type: functional
Mu-type opioid receptor = Mu-type opioid receptor (Homo sapiens, UniProt P35372); assay: Counterscreen for agonists of heterodimerization of the mu 1 (OPRM1) and delta 1 (OPRD1) opioid receptors: Luminescence-based cell-based high throughput dose response assay to identify agonists of OPRM1 homodimerization.; assay type: functional;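 further: U2OS cells expressing OPRM1 and beta-arrestin as split beta-galactosidase partners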
[23] = biological target: Mitochondrial peptide methionine sulfoxide reductase (Bos taurus, UniProt P54149); assay type: functional;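 further: absorbance read-out, biochemical high-throughput dose-response screen for MsrA inhibitors, confirmatory; recombinant bovine MsrA coupled to E. coli TrxB with NADPH and selenocystamine; potency is for inhibitors of MsrA activity on DMSO substrate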
H4 = assay: Luminescence Cell-Based Dose Response HTS to Identify Activators of 5'UTR Stem-Loop Driven Prion Protein mRNA Translation in H4 Neuroglioblastoma Cells. [Related pubchem assays: 1829 (Project Summary), 1814 (Primary HTS)]; assay type: functional; details: Homo sapiens
[24] = biological target: Dual specificity protein kinase CLK4 (Homo sapiens, UniProt Q9HAZ1); assay type: functional
[25] = biological target: DNA dC->dU-editing enzyme APOBEC-3A (Homo sapiens, UniProt P31941); assay: SAR analysis of small molecule inhibitors of APOBEC3A DNA Deaminase via a fluorescence-based single-stranded DNA deaminase assay.; assay type: functional; details: read-out: IC50_Mean
Sequence of DNA dC->dU-editing enzyme APOBEC-3A (P31941 whole entry): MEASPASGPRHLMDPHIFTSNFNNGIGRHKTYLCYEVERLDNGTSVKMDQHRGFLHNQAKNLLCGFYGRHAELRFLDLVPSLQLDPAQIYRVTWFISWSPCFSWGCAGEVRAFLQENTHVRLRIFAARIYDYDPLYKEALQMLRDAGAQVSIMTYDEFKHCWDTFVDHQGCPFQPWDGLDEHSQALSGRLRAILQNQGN

[26] = biological target: DNA dC->dU-editing enzyme APOBEC-3G (Homo sapiens, UniProt Q9HC16); assay: APOBEC3G deaminase inhibitors, SAR follow-up, biochemical, fluorescence, single-stranded DNA substrate (AID 602136); assay type: functional; details: read-out: IC50_Mean
Genome polyprotein = Genome polyprotein (dengue virus type 2, UniProt P29990); assay: Dengue-2 NS5 methyltransferase inhibitors, primary screen, biochemical, confirmation dose response (AID 588689); assay type: functional
[27] = biological target: Photoreceptor-specific nuclear receptor (Homo sapiens, UniProt Q9Y5X4); assay type: functional, cell-based;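 further: CHO-S cells with Gal4-NCOR and VP16-NR2E3 two-hybrid luciferase reporter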
Vero = Vero cell cytotoxicity, cytotoxicity control for flavivirus capping enzyme inhibitors (AID 588742); assay type: functional; details: Chlorocebus sabaeus
[28] = biological target: T5, Aryl hydrocarbon receptor (Homo sapiens, UniProt P35869); details: Potency;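 further: confirmatory quantitative high-throughput screen measuring activation of the AhR signaling pathway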
T5 sequence (P35869 whole entry): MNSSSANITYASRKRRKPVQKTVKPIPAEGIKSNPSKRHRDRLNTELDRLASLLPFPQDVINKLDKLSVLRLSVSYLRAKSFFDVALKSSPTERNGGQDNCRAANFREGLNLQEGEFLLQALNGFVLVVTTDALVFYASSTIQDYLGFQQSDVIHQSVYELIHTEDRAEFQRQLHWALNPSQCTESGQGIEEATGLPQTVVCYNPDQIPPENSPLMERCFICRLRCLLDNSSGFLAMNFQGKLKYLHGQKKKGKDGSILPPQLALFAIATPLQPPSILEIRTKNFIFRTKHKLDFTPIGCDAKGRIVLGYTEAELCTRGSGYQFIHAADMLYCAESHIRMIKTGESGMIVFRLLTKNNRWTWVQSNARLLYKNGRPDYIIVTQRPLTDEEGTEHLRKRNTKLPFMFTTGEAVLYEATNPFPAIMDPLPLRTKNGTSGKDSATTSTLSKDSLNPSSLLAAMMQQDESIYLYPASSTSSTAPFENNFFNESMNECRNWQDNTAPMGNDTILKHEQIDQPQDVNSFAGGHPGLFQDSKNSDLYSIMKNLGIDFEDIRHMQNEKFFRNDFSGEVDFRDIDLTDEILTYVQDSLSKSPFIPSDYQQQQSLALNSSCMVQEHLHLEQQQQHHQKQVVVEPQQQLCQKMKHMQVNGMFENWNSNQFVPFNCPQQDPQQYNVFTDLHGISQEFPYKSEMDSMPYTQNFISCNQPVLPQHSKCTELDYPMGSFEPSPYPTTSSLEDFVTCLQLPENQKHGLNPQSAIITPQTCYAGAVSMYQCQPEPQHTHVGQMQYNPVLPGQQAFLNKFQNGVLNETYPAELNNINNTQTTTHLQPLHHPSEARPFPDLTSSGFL

CC(=O)Nc1ccc(NC(=O)COC(=O)Cc2c[nH]c3ccccc23)cc1
IC50 [1]: 35.9 µM (inactive) | IC50 [2]: 2.64 µM (active) | IC50 (Steroidogenic factor 1): 2.07 µM (active)

CC(NS(=O)(=O)c1cccc(Cl)c1)C(=O)Nc1ccc(-c2nc3ccccc3s2)cc1 (stereo not given)
AC50 (HeLa): > 350 µM (inactive)

O=C1C(=Cc2cn(-c3ccccc3)nc2-c2ccc(OCc3ccc(Cl)cc3)cc2)SC(=S)N1CCS(=O)(=O)O
IC50 [3]: 7.21 µM (active) | IC50 [4]: 1.35 µM (active)

COc1ccc(-c2cc(C(=O)Nc3cccc(S(=O)(=O)NCc4ccco4)c3)c3ccccc3n2)cc1OC
IC50 [5]: 13.8 µM (active) | IC50 [6]: 25.3 µM (active) | EC50 [7]: 1.64 µM (active) | EC50 [8]: > 60 µM (not active)

CN1CCN(c2c(F)cc3c(=O)c(C(=O)O)cn4c3c2OCN4C)CC1 [MARBOFLOXACIN]
EC50 (Streptococcus): 3.07 µM (active) | AC50 (Escherichia coli [9]): 4.63 µM (active) | EC50 [10]: 2.79 µM (active) | AC50 (Escherichia coli [11]): 1.12 µM (active)

FC(F)(F)c1ccccc1CNc1nccc(-c2c[nH]c3ncccc23)n1
Ki [12]: 0.2 µM (active) | Ki [13]: 0.0126 µM (active) | Ki [14]: 0.501 µM (active) | Ki [15]: 0.02 µM (active) | Ki [16]: 0.0631 µM (active) | Ki [17]: 0.01 µM (active) | Ki [18]: 0.00126 µM (active) | Ki [19]: 0.02 µM (active)

CCOC(=O)C1(CCOC)CCN(Cc2ccccc2-c2ccco2)CC1
EC50 [20]: 0.299 µM (active) | EC50 [21]: > 92.5 µM (inactive) | EC50 [22]: > 92.5 µM (inactive) | EC50 (Mu-type opioid receptor): > 92.5 µM (inactive)

CC(C)(C)c1ccc(S(=O)(=O)N2CCSC2)cc1
AC50 (Escherichia coli [9]): 31.3 µM (active) | AC50 (Escherichia coli [11]): 37.1 µM (active)

Cc1ccc(Nc2c([N+](=O)[O-])nn(-c3ccccc3)[n+]2[O-])c(C)c1
IC50 [23]: 155 µM (inactive) | EC50 (H4): 9.37 µM (active)

Cc1ccccc1-c1c(-c2ccc3[nH]nc(C)c3c2)nnn1Cc1ccccc1
Ki [12]: > 10 µM (inactive) | Ki [13]: 0.0126 µM (active) | Ki [14]: 0.251 µM (active) | Ki [15]: 2.51 µM (active) | Ki [17]: 0.158 µM (active) | Ki [24]: 0.00794 µM (active) | Ki [18]: 0.00251 µM (active) | Ki [19]: 0.158 µM (active)

COCc1nnc(NC(=O)Cc2ccc(Cl)cc2)s1
IC50 [25]: > 99 µM (inactive) | IC50 [26]: > 99 µM (inactive)

Cc1ccc([C@@H]2CC=C(C(=O)O)[C@H](c3ccc(C(C)(C)C)cc3)N2S(=O)(=O)c2ccc(C)cc2)cc1
IC50 (Genome polyprotein): 39.8 µM (active) | IC50 [27]: 5.74 µM (active) | CC50 (Vero): > 40 µM (active)

Cc1ccc(NC(=O)c2ccccc2Cl)c(Cl)c1
AC50 (HeLa): 84.8 µM (active)

CCOP(=S)(OCC)Oc1nc(Cl)n(C(C)C)n1
AC50 [28]: 39.8 µM (inconclusive)
